Test results taken from patent publication US12502386B2, “Nitrogen-containing heterocyclic compound and use thereof” (SHANGHAI SHIJIANG BIOTECHNOLOGY CO., LTD, priority 2022, dated 2025).

Tests used:
[1] = tested on: D341 Med; experiment: CellTiter-Glo cell viability, brain tumor cell line D341 Med; assay type: cell-based; details: Homo sapiens, 72 h, cerebellar medulloblastoma cell, 3 days of culture, read-out: inhibitory effect on D341 Med (IC50)
Experimental: (§1) Cell viability was detected using the Promega CellTiter-Glo kit, cell viability was determined by directly measuring intracellular ATP content. In the experiment, the IC50 value of the compounds prepared in the Examples of the present invention on various brain tumor cell lines was detected.
(§2) Each tumor cell was cultured in relevant medium. After cell passage, the gradient diluted compounds prepared in the Examples of the present invention was added. After 3 days of culture, the relevant IC50 (50% inhibiting concentration) was measured. The name, source and culture conditions of each tumor cell line were as follows:
Cell line D341 Med (ATCC, No. HTB-187) was cultured in 20% fetal bovine serum-containing EMEM medium (+P/S).

[2] = tested on: 786-O; experiment: CellTiter-Glo cell viability, tumor cell line 786-O; assay type: cell-based; details: Homo sapiens, 786-0, 72 h; clear cell renal cell adenocarcinoma cell; 3 days of culture; read-out: inhibitory effect on 786-O (IC50)
Experimental: (§3) Cell viability was detected using the Promega CellTiter-Glo kit, cell viability was determined by directly measuring intracellular ATP content. In the experiment, the IC50 value of the compounds prepared in the Examples of the present invention on various tumor cell lines was detected.
as §2
Cell line 786-0 (ATCC, No. CRL-1932) was cultured in 10% fetal bovine serum-containing RPMI164B medium (+P/S).

[3] = tested on: NB-1; experiment: CellTiter-Glo cell viability, brain tumor cell line NB-1; assay type: cell-based; details: Homo sapiens, NB1, 72 h; brain neuroblastoma cell; 3 days of culture; read-out: inhibitory effect on NB-1 (IC50)
Experimental: as §1
as §2, with “follows: […]” for “follows:”

[4] = tested on: G-401; experiment: CellTiter-Glo cell viability, tumor cell line G-401; assay type: cell-based; details: G-401, 72 h; human renal carcinoma Wilms cell; 3 days of culture; read-out: inhibitory effect on G-401 (IC50)
Experimental: as §3, §2
Cell line G-401 (ATCC, No. CRL-1441) was cultured in 10% fetal bovine serum-containing McCoy's 5a medium (+P/S).

[5] = tested on: Con-NCI-H82 cell; experiment: CellTiter-Glo cell viability, Con-NCI-H82 cell (empty-vector control); assay type: cell-based, human; details: Homo sapiens, NCI-H82, NCI-H82 transfected with empty virus vector (control), intracellular ATP, read-out: inhibitory effect on Con-NCI-H82 (IC50)
[6] = tested on: SW48; experiment: CellTiter-Glo cell viability, tumor cell line SW48; assay type: cell-based; details: SW48, 72 h; human colon adenocarcinoma cell; 3 days of culture; read-out: inhibitory effect on SW48 (IC50)
Experimental: as §3, §2
Cell line SW48 (ATCC, No. CCL-231) was cultured in 10% fetal bovine serum-containing Leibovitz's L-15 medium (+P/S).

[7] = tested on: SF-126; experiment: CellTiter-Glo cell viability, tumor cell line SF-126; assay type: cell-based; details: SF-126, 72 h, read-out: inhibitory effect on SF-126 (IC50); human glioblastoma multiforme cell; 3 days of culture
Experimental: as §3, §2
Cell line SF126 (JCRB, No. IFO50286) was cultured in 10% fetal bovine serum-containing EMEM medium (+P/S).
as §1

[8] = tested on: CFPAC-1; experiment: CellTiter-Glo cell viability, tumor cell line CFPAC-1; assay type: cell-based; details: CFPAC-1, 72 h; human pancreatic cancer cell; 3 days of culture; read-out: inhibitory effect on CFPAC-1 (IC50)
Experimental: as §3, §2
Cell line CFPAC-1 (ATCC, No. CRL-1918) was cultured in 10% fetal bovine serum-containing IMDM medium (+P/S).

[9] = tested on: GB-1; experiment: CellTiter-Glo cell viability, tumor cell line GB-1; assay type: cell-based; details: GB-1, 72 h; human brain glioblastoma cell; 3 days of culture; read-out: inhibitory effect on GB-1 (IC50)
Experimental: as §3, §2
Cell line GB-1 (JCRB, No. IFO50489) was cultured in 10% fetal bovine serum-containing DMEM medium (+P/S).
as §1

[10] = tested on: NCI-H82; experiment: CellTiter-Glo cell viability, tumor cell line NCI-H82; assay type: cell-based; details: NCI-H82, 72 h; human small cell lung cancer cell; 3 days of culture; read-out: inhibitory effect on NCI-H82 (IC50)
Experimental: as §3, §2
Cell line NCI-H82 (ATCC, No. HTB-175) was cultured in 10% fetal bovine serum-containing RPMI1640 medium (+P/S).

[11] = tested on: ov-NNMT NCI-H82 cell; experiment: CellTiter-Glo cell viability, ov-NNMT NCI-H82 cell (NNMT overexpressed); assay type: cell-based, human; details: Homo sapiens, NCI-H82, NCI-H82 overexpressing NNMT protein, intracellular ATP, read-out: inhibitory effect on OV-NNMT NCI-H82 (IC50)
[12] = tested on: sh-DNMT1 NCI-H82 cell; experiment: CellTiter-Glo cell viability, sh-DNMT1 NCI-H82 cell (DNMT1 knocked down); assay type: cell-based, human; details: Homo sapiens, NCI-H82, NCI-H82 with DNMT1 knocked down by shRNA, intracellular ATP, read-out: inhibitory effect on sh-DNMT1 NCI-H82 (IC50)
[13] = tested on: Kelly; experiment: CellTiter-Glo cell viability, brain tumor cell line Kelly; assay type: cell-based; details: Homo sapiens, 72 h, brain neuroblastoma cell, 3 days of culture, read-out: inhibitory effect on Kelly (IC50)
Experimental: as §1, §2
Cell line Kelly (ECACC, No. 92110411) was cultured in 10% fetal bovine serum and 2 mM glutamine-containing RPMI1640 medium.

[14] = tested on: MDA-MB-453; experiment: CellTiter-Glo cell viability, tumor cell line MDA-MB-453; assay type: cell-based; details: Homo sapiens, MDA-MB-453, 72 h; breast cancer cell; 3 days of culture; read-out: inhibitory effect on MDA-MB-453 (IC50)
Experimental: as §3
as §2, with “follows: […]” for “follows:”

| SMILES | IC50 [1] [µM] | IC50 [2] [µM] | IC50 [3] [µM] | IC50 [4] [µM] | IC50 [5] [µM] | IC50 [6] [µM] | IC50 [7] [µM] | IC50 [8] [µM] | IC50 [9] [µM] | IC50 [10] [µM] | IC50 [11] [µM] | IC50 [12] [µM] | IC50 [13] [µM] | IC50 [14] [µM] |
| --- | --- | --- | --- | --- | --- | --- | --- | --- | --- | --- | --- | --- | --- | --- |
| COc1ccc2c(c1OC/C=C(\C)CCC=C(C)C)C(C(Cl)(Cl)Cl)N1CCc3cc4c(cc3C1=C2)OCO4 (centres unmarked) [AB35405] | 0.76 | 13.1 | 2.46 | 0.88 | 0.92 | 2.34 | 20.3 | 18.3 | 16 | 0.92 | 2.13 | 3.86 | 3.12 | 1.76 |
| COc1ccc2c(c1OC)CN1CCc3cc4c(cc3C1=C2Cc1ccc(OC(F)(F)F)cc1)OCO4 [AB31866] | 1.54 | 15.6 | 2.19 | 1.08 | 0.82 | 1.96 | 20.1 | 12.4 | 10.5 | 0.82 | 1.86 | 3.48 | 1.32 | 2.32 |
| COc1ccc2c(c1OCCCBr)C(C1CCCC1)N1CCc3cc4c(cc3C1=C2)OCO4 (centres unmarked) [AB35430] | 1.32 | 16.1 | 2.55 | 1.32 | 0.85 | 1.56 | 23.4 | 12.1 | 16.9 | 0.85 | 3.18 | 6.32 | 2.01 | 0.96 |
| CCCOc1c(OC)ccc2c1C(C(Cl)(Cl)Cl)N1CCc3cc4c(cc3C1=C2)OCO4 (centres unmarked) [AB35506] | 1.66 | 10.3 | 3.88 | 1.27 | 0.83 | 2.13 | 19.9 | 14.1 | 25.5 | 0.83 | 2.66 | 2.52 | 3.59 | 1.56 |
| COc1ccc2c(c1OCCCCl)C(C(Cl)(Cl)Cl)N1CCc3cc4c(cc3C1=C2)OCO4 (centres unmarked) [AB35441] | 2.32 | 16.5 | 1.98 | 1.56 | 1.01 | 1.22 | > 30 | 12.3 | 24.4 | 1.01 | 3.21 | 2.98 | 3.16 | 0.98 |
| C1=C2c3cc4c(cc3CCN2C(C2CCCC2)c2c1ccc1c2OCO1)OCO4 (centres unmarked) [AB36423] | 1.55 | 22.3 | 2.98 | 2.32 | 1.85 | 2.54 | > 30 | 14.3 | 16.1 | 1.85 | 5.11 | 4.98 | 3.12 | 1.66 |
| COc1ccc2c(c1OC)C(C1CCC1)N1CCc3cc4c(cc3C1=C2)OCO4 (centres unmarked) [AB36447] | 2.75 | > 30 | 2.04 | 2.68 | 2.02 | 1.96 | > 30 | 20.1 | 24.6 | 2.02 | 4.98 | 7.12 | 1.98 | 2.12 |
